Results as given in ChEMBL document CHEMBL1153748 (J Med Chem, 2010).

Legend:
[1] = molecular target: T1, Peroxisome proliferator-activated receptor delta (Homo sapiens, UniProt Q03181)
T1 sequence (Q03181 whole entry): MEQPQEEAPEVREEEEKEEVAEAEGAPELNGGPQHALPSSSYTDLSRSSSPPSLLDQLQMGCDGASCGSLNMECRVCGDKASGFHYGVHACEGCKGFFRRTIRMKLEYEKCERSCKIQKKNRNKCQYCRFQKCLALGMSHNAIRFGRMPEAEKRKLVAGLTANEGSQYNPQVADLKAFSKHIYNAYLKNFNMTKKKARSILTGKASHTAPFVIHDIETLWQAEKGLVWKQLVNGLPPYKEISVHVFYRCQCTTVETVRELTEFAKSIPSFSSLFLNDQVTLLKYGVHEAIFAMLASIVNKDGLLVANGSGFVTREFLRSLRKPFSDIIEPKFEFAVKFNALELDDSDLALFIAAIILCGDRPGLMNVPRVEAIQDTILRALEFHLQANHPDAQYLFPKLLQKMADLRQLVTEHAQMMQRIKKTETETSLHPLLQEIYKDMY

[2] = molecular target: T2, Peroxisome proliferator-activated receptor gamma (Homo sapiens, UniProt P37231); assay type: cell-based, 293T; conditions: read-out: EC50
T2 sequence (P37231 whole entry): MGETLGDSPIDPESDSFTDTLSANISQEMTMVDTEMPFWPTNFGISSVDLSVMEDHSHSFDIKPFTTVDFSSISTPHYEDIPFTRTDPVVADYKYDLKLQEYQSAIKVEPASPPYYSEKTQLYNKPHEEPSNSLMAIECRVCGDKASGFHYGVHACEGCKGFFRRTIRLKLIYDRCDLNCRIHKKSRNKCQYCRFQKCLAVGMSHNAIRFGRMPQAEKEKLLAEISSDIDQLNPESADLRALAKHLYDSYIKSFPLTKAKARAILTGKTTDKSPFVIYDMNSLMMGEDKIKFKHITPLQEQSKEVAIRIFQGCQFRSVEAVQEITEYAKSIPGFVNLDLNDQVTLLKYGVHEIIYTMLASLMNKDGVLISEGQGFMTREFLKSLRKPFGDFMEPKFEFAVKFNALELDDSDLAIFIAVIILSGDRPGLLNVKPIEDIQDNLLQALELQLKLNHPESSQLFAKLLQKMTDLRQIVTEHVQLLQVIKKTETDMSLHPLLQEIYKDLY

[3] = molecular target: T3, Peroxisome proliferator-activated receptor alpha (Homo sapiens, UniProt Q07869); assay: Agonist activity at human PPARalpha ligand binding domain expressed in human 293T cells co-transfected with Gal4-DBD by luciferase transactivation assay; assay type: cell-based; conditions: read-out: EC50
T3 sequence (Q07869 whole entry): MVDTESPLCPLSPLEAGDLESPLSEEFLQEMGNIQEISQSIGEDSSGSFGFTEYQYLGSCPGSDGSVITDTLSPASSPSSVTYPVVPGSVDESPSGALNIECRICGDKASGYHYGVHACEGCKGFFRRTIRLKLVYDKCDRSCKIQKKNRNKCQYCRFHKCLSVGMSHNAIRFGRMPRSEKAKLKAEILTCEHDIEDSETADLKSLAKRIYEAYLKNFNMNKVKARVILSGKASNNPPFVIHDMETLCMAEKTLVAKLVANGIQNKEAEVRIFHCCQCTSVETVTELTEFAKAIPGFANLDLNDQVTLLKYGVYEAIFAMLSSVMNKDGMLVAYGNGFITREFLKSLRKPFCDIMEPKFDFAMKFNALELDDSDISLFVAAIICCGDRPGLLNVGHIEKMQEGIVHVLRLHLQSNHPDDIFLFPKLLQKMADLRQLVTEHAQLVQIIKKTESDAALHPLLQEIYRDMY

Structure (SMILES) | EC50 [1] [µM] | EC50 [2] [µM] | EC50 [3] [µM]
COc1ccc(-c2nc(COc3ccc(OCC(=O)O)c(C)c3)sc2/C=C/c2ccccc2)cc1 | 0.11 | > 10 | > 10
Cc1ccc(-c2csc(COc3ccc(OCC(=O)O)c(C)c3)n2)cc1 | > 10 | > 10 | > 10
Cc1cc(OCc2nc(C)c(-c3ccc(Cl)cc3)s2)ccc1OCC(=O)O | 0.32 | > 10 | > 10
COc1ccc(-c2nc(COc3ccc(CC(=O)O)cc3)sc2-c2ccc(C(F)(F)F)cc2)cc1 | 1.3 | > 10 | > 10
COc1ccc(-c2nc(COc3ccc4c(c3)CC(C(=O)O)O4)sc2-c2ccc(C(F)(F)F)cc2)cc1 (stereo unspecified) | 0.46 | > 10 | > 10
COc1ccc(-c2nc(COc3ccc(OCC(=O)O)cc3C)sc2-c2ccc(C(F)(F)F)cc2)cc1 | 2.26 | > 10 | > 10
COc1ccc(-c2nc(COc3ccc(OCC(=O)O)c(C)c3)sc2-c2cc3ccccc3o2)cc1 | 0.05 | > 10 | > 10
COc1ccc(-c2nc(COc3ccc(OCC(=O)O)c(C)c3)sc2-c2cnc3ccccc3c2)cc1 | 0.08 | > 10 | > 10
Cc1cc(OCc2nc(-c3ccc4[nH]c(=O)oc4c3)c(-c3ccc(OC(F)(F)F)cc3)s2)ccc1OCC(=O)O | 0.544 | > 10 | > 10
Cc1cc(OCc2nc(-c3ccc4c(c3)OCCO4)c(-c3ccc(OC(F)(F)F)cc3)s2)ccc1OCC(=O)O | 0.017 | > 10 | > 10
Cc1cc(OCc2nc(-c3ccc(-c4ccccc4)cc3)c(-c3ccc(OC(F)(F)F)cc3)s2)ccc1OCC(=O)O | 0.16 | > 10 | > 10
COc1ccc(-c2nc(COc3ccc(OCC(=O)O)c4ccccc34)sc2-c2ccc(C(F)(F)F)cc2)cc1 | 2.93 | > 10 | > 10
COc1ccc(-c2nc(Sc3cccc(C(C)C(=O)O)c3)sc2-c2ccc(OC)cc2)cc1 (stereo unspecified) | 3.2 | 2.3 | 0.3
Cc1cc(OCc2nc(-c3ccc4c(c3)OCCCO4)c(-c3ccc(OC(F)(F)F)cc3)s2)ccc1OCC(=O)O | 0.013 | > 10 | > 10
COc1ccc(-c2nc(COc3ccc4oc(C(=O)O)cc4c3)sc2-c2ccc(C(F)(F)F)cc2)cc1 | > 10 | > 10 | > 10
Cc1cc(OC/C=C(\C#Cc2ccc(C(F)(F)F)cc2)c2ccc(Br)cc2)ccc1OCC(=O)O | 0.13 | > 10 | > 10
COc1ccc(-c2nc(COc3ccccc3OCC(=O)O)sc2-c2ccc(C(F)(F)F)cc2)cc1 | > 10 | > 10 | > 10
COc1ccc(-c2sc(COc3ccc(OCC(=O)O)c(C)c3)nc2C)cc1 | > 10 | > 10 | > 10
COc1ccc(-c2nc(COc3ccc4c(CC(=O)O)cccc4c3)sc2-c2ccc(C(F)(F)F)cc2)cc1 | 0.74 | > 10 | > 10
Cc1cc(OCc2nc(-c3ccc(Cl)cc3)c(-c3ccccc3)s2)ccc1OCC(=O)O | 5.9 | > 10 | > 10
Cc1cc(OCc2nc(-c3ccccc3)c(-c3ccccc3)s2)ccc1OCC(=O)O | > 10 | > 10 | > 10

Next, values leading:

EC50 [1] [µM] | EC50 [2] [µM] | EC50 [3] [µM] | Structure (SMILES)
0.034 | > 10 | > 10 | COc1ncc(-c2nc(COc3ccc(OCC(=O)O)c(C)c3)sc2-c2ccc(OC(F)(F)F)cc2)cn1
0.51 | > 10 | > 10 | Cc1cc(OCc2nc(-c3ccc(Cl)cc3)c(-c3ccc(Cl)cc3)s2)ccc1OCC(=O)O
0.12 | > 10 | > 10 | COc1ccc(-c2nc(COc3ccc(OCC(=O)O)c(C)c3)oc2-c2ccc(OC)cc2)cc1
0.12 | > 10 | > 10 | COc1cccc(-c2nc(COc3ccc(OCC(=O)O)c(C)c3)sc2-c2ccc(OC(F)(F)F)cc2)c1
0.06 | > 10 | > 10 | COc1ccc(-c2nc(COc3ccc(OCC(=O)O)c(C)c3)sc2-c2ccc(Cl)cc2)cc1
0.14 | > 10 | > 10 | COc1ccc(-c2nc(COc3ccc(CCC(=O)O)c(C)c3)sc2-c2ccc(C(F)(F)F)cc2)cc1
0.13 | > 10 | > 10 | Cc1cc(OCc2nc(-c3ccccc3)c(-c3ccc(Cl)cc3)s2)ccc1OCC(=O)O
0.01 | > 10 | > 10 | COc1ccc(-c2nc(COc3ccc(OCC(=O)O)c(C)c3)sc2-c2ccc(-c3ccccc3)cc2)cc1
0.65 | > 10 | > 10 | COc1ccc(-c2nc(COc3ccc(OCC(=O)O)c(C)c3)oc2-c2cccc(C(F)(F)F)c2)cc1
1.2 | > 10 | > 10 | COc1ccc(-c2nc(COc3ccc(OC(C)(C)C(=O)O)cc3)sc2-c2ccc(C(F)(F)F)cc2)cc1
0.059 | > 10 | > 10 | Cc1cc(OCc2nc(-c3cncnc3)c(-c3ccc(OC(F)(F)F)cc3)s2)ccc1OCC(=O)O
0.331 | > 10 | > 10 | Cc1cc(OCc2nc(-c3ccc(C(F)(F)F)cc3)c(-c3ccc(OC(F)(F)F)cc3)s2)ccc1OCC(=O)O
0.07 | > 10 | > 10 | COc1ccc(-c2nc(COc3ccc(OCC(=O)O)c(C)c3)sc2-c2cccc(C(F)(F)F)c2)cc1
0.02 | > 10 | > 10 | CCCc1cc(OCc2nc(-c3ccc(OC)cc3)c(-c3ccc(C(F)(F)F)cc3)s2)ccc1OCC(=O)O
0.66 | > 10 | > 10 | COc1ccc(-c2nc(CSc3ccc(OCC(=O)O)c(C)c3)oc2-c2ccc(OC)cc2)cc1
0.045 | > 10 | > 10 | Cc1cc(OCc2nc(-c3ccc(N4CCOCC4)cc3)c(-c3ccc(OC(F)(F)F)cc3)s2)ccc1OCC(=O)O
0.063 | > 10 | > 10 | Cc1cc(OCc2nc(-c3ccc(OCC(C)C)cc3)c(-c3ccc(OC(F)(F)F)cc3)s2)ccc1OCC(=O)O
0.02 | > 10 | > 10 | COc1ccc(-c2nc(COc3ccc(OCC(=O)O)c(C)c3)sc2-c2ccc(OC(F)(F)F)cc2)cc1
0.03 | > 10 | > 10 | CCN(CC)c1ccc(-c2nc(COc3ccc(OCC(=O)O)c(C)c3)sc2-c2ccc(OC(F)(F)F)cc2)cc1
0.068 | > 10 | > 10 | Cc1cc(OCc2nc(-c3cccnc3)c(-c3ccc(OC(F)(F)F)cc3)s2)ccc1OCC(=O)O
0.14 | > 10 | > 10 | COc1ccc(-c2nc(COc3ccc(CC(=O)O)c(C)c3)sc2-c2ccc(C(F)(F)F)cc2)cc1
0.055 | > 10 | > 10 | Cc1cc(OCc2nc(-c3cncnc3)c(-c3ccc(OC(F)(F)F)cc3)o2)ccc1OCC(=O)O
0.13 | > 10 | > 10 | COc1ccc(-c2nc(COc3ccc(OCC(=O)O)c(C)c3)sc2-c2ccc(OC)c(Cl)c2)cc1
0.05 | > 10 | > 10 | COc1ccc(-c2nc(COc3ccc(OCC(=O)O)c(C)c3)oc2-c2ccc(Cl)cc2)cc1
0.19 | > 10 | > 10 | Cc1ccc(-c2sc(COc3ccc(OCC(=O)O)c(C)c3)nc2-c2cccnc2)cc1
0.01 | > 10 | > 10 | COc1ccc(-c2nc(COc3ccc(OCC(=O)O)c(C)c3)oc2-c2ccc(OC(F)(F)F)cc2)cc1
